# Experimental data published in patent publication US5798391A, “Injectable solution of benzalkonium fluoride” (Aromafarm Limited, priority 1994, dated 1998).
# Read-outs that look alike come from different tables or passages of the source.
# Columns and labels:
# ADENOVIRUS Type 5 = assay: virucidal activity of BKF, AFNOR T72-180, molecular screening (Table 3); format: cell-based; conditions: 32° C.
# Experimental: We have determined the virucide activity of tetradecyl-dimethyl-benzyl-ammonium fluoride (BKF) vis-a-vis vertebrate viruses in conformance with French Standard AFNOR T72-180, December 1989. This benzalkonium fluoride was diluted in solution in sterile distilled water at the following concentrations: 0.02, 0.01, 0.005% (weight divided by volume).
# adenovirid.ae butted.: adenovirus type 5, cultivated on KB cell,
# The water, the culture medium and the reagents are those recognised by Standard AFNOR T72-180. The titration of the virus is by reading the cytopathic test, following the method described in Standard AFNOR T72-180. The calculation of the infectious titration is by the FISHER and YATES method with the WYSHAK and DETRE tables. The results are given in number of infectious units per ml, or plaque-forming units per ml (PFU/ml).
# The virucidal activity was then determined by the technique known as molecular screening, consisting of filtration on sephadex gel LH 20 and using subcytotoxic concentrations of benzalkonium fluoride. The virucidal activity was determined as a function of contact time between the benzalkonium fluoride and the viral strain. […] The virucidal activity of benzalkonium fluoride (BKF) is determined by the minimal concentration and minimal contact time with the virus which provoked a reduction of infectious titration of the viruses by a logarithmic factor of a least 4. […]
# mice = assay: LD 50, unique administration, Behrens and Karber method, mice; format: in vivo, albino mouse
# Experimental: The high toxicity of benzalkonium fluoride in unique administration in mice and guinea pigs was determined by the Behrens and Karber method, by intracardiac, intravenous and intraperitoneal injection. The animals used were young adult albino mice and albino guinea pigs. Ten animals were used for each dose administered, five males and five females. The benzalkonium fluoride was used in a 3 g/l isotonic solution of sterile apyrogenic sodium chloride. We observed the animals for 7 days after unique administration carried out using a sterile needle adapted to a syringe graduated in 1/10 ml to allow the treatment of each animal with an exact dose. The animals were weighed each day during the observation period.
# The LD 50 (lethal dose 50) was determined.
# rabbit blood = assay: in vitro haemolysis of total blood, rabbit
# dogs (beagles) = assay: local and general tolerance of intravenous administration in dogs, 28 days; conditions: injected intravenously
# AIDS = conditions: person
# [1] = female German Pointer 12 kg, same treatment
smiles,measurement,setting,value
"CCCCCCCCCCCCCC[N+](C)(C)Cc1ccccc1.[F-] [benzalkonium fluoride, tetradecyl-dimethyl-benzyl-ammonium fluoride]",virucidal activity: minimal contact time,ADENOVIRUS Type 5; 0.02% (m/V),120 min
same,virucidal activity: minimal concentration (reduction by logarithmic factor of at least 4),ADENOVIRUS Type 5; 120 minutes contact,0.02 % (m/V)
same,LD 50,"mice; female mouse, intraperitoneal",34.60 mg/mL
same,LD 50,"mice; female mouse, intravenous",36.60 mg/mL
same,"acute toxicity, overall","mice; intravenous, intraperitoneal or intracardiac injection, mice and guinea pigs",sufficiently low toxicity
same,LD 50,"mice; male mouse, intraperitoneal",33.10 mg/mL
same,LD 50,"mice; male mouse, intravenous",33.24 mg/mL
same,tolerance,"parvovirus; dog, in vivo",excellent
same,normal eating,parvovirus; [1],4 days
same,total recovery confirmed,parvovirus; [1],18 days
same,total recovery,"parvovirus; female German Shepherd 10 kg, 10 ml then 20 ml, associated treatment 8 days",20 days
same,complete recovery,"parvovirus; female Rottweiler 15 kg, two injections of 10 ml, 12 h apart",18 days
same,"recovery, days after start of treatment","parvovirus; male German Shepherd 20 kg, two injections at 12 h interval, 2.1 g/l",6 days
same,normal eating,"parvovirus; male Newfoundland 28 kg, after four days",eating normally
same,blood in urine and vomiting,"parvovirus; male Newfoundland 28 kg, two injections of 10 ml, end of second day",the blood had disappeared from the urine and the dog no longer vomited
same,death,"parvovirus; three puppies with violent evolutive gastro-enteritis, two injections at 12 h interval",Death occurred within two days
same,haemolysis (degree of red colouring),rabbit blood; 37.5 ppm or mg/l,0
same,haemolysis (degree of red colouring),rabbit blood; 75 ppm or mg/l,+
same,haemolysis (degree of red colouring),rabbit blood; 150 ppm or mg/l,+++
same,"toxic effect, overall",dogs (beagles),no remarkable toxic effect
same,pain at the injection point,"AIDS; 50 ml at 2.1 g/l every twelve hours, end of second cure",pain at the injection point
same,number of CD4,"AIDS; after treatment, before: less than 200",600
same,general state,AIDS; fourth month,returned to a normal general state
same,general state,AIDS; one month and seven months after treatment,a good general state
same,fever,"AIDS; sixth day, 50 ml at 2.1 g/l every eight hours, three days, with Doxycycline",the fever had disappeared
same,"fever, vomiting and diarrhoea",AIDS; tenth day,"disappearance of the fever, vomiting and diarrhoea"
same,general state,"AIDS; tenth day, two cures of three days",a clear improvement in the general state
same,weight after gain,"AIDS; tenth day, before 57 kg",59.6 kg
same,fever,"AIDS; third day, 2.1 g/l every twelve hours",a clear fall in the fever
same,clinical symptoms,AIDS; three and a half months,no clinical symptoms
same,general state,AIDS; three and a half months,a good general state
same,weight,"AIDS; three and a half months, before 52 kg",56 kg
same,number of CD4,"AIDS; three and a half months, before 200",700
same,mobility,AIDS; totally bedridden before,could get up and walk
same,asthenia,AIDS; two months after start,progressive disappearance of the asthenia
